Measurements published in ChEMBL document CHEMBL5120883, “The Dawn of Allosteric BCR-ABL1 Drugs: From a Phenotypic Screening Hit to an Approved Drug” (2022).

System: BaF3
Experiment: Antiproliferative activity against mouse BaF3 cells expressing Bcr-Abl assessed as cell growth inhibition
Assay type: functional

**Q.** For `FC(F)(F)Oc1ccc(Nc2cc(NCCN3CCOCC3)ncn2)cc1`, which GI50 is on record?
**A.** 0.72 µM

**Q.** How did the GI50 turn out when `FC(F)(F)c1ccc(Nc2cc(NCCN3CCOCC3)ncn2)cc1` was run?
**A.** 0.92 µM

**Q.** For `FC(F)(F)Oc1ccc(Nc2cc(-c3cn[nH]c3)ncn2)cc1`, which GI50 is on record?
**A.** 0.09 µM

**Q.** Which GI50 does the source give for `FC(F)(F)Oc1ccc(Nc2cc(-c3ccc4[nH]ccc4c3)ncn2)cc1` here?
**A.** 0.29 µM

**Q.** `NS(=O)(=O)c1ccc(-c2cc(Nc3ccc(OC(F)(F)F)cc3)ncn2)cc1` was tested. Which GI50 did it give?
**A.** 0.12 µM

**Q.** Which GI50 does the source give for `FC(F)(F)Oc1cccc(Nc2cc(NCCN3CCOCC3)ncn2)c1` here?
**A.** 0.72 µM
